| Structure (SMILES) | melting point |
| --- | --- |
| CN(C)CCNc1nc2ccc3c(c2[n+]([O-])n1)CCC3 [Compound 6, N^1,N^1-Dimethyl-N^2-(1-oxido-8,9-dihydro-7H-indeno[5,4-e][1,2,4]triazin-3-yl)-1,2-ethanediamine] | 186 to 190 °C |
| CCN(CC)CCNc1nc2ccc3c(c2[n+]([O-])n1)CCC3 [Compound 8, N^1,N^1-Diethyl-N^2-(1-oxido-8,9-dihydro-7H-indeno[5,4-e][1,2,4]triazin-3-yl)-1,2-ethanediamine] | 126 to 130 °C |
| CCCN(CCC)CCNc1nc2ccc3c(c2[n+]([O-])n1)CCC3 [Compound 10, N^1-(1-Oxido-8,9-dihydro-7H-indeno[5,4-e][1,2,4]triazin-3-yl)-N^2,N^2-dipropyl-1,2-ethanediamine] | 148 to 151 °C |
| [O-][n+]1nc(NCCN2CCCCC2)nc2ccc3c(c21)CCC3 [Compound 12, N-[2-(1-Piperidinyl)ethyl]-8,9-dihydro-7H-indeno[5,4-e][1,2,4]triazin-3-amine 1-Oxide] | 152 to 155 °C |
| Nc1nc2cc3c(cc2[n+]([O-])n1)CCC3 [Compound 19, 7,8-Dihydro-6H-indeno[5,6-e][1,2,4]triazin-3-amine 1-Oxide] | 270 to 272 °C |
| CN(C)CCNc1nc2cc3c(cc2[n+]([O-])n1)CCC3 [Compound 22, N^1,N^1-Dimethyl-N^2-(1-oxido-7,8-dihydro-6H-indeno[5,6-e][1,2,4]triazin-3-yl)-1,2-ethanediamine] | 122 to 124 °C |
| [O-][n+]1nc(NCCO)nc2cc3c(cc21)CCC3 [Compound 24, 2-[(1-Oxido-7,8-dihydro-6H-indeno[5,6-e][1,2,4]triazin-3-yl)amino]ethanol] | 222 to 224 °C |
| CCN(CC)CCNc1nc2cc3c(cc2[n+]([O-])n1)CCC3 [Compound 26, N^1-(1-Oxido-7,8-dihydro-6H-indeno[5,6-e][1,2,4]triazin-3-yl)-N^2,N^2-diethyl-1,2-ethanediamine] | 109 to 112 °C |
| CCCN(CCC)CCNc1nc2cc3c(cc2[n+]([O-])n1)CCC3 [Compound 28, N^1-(1-Oxido-7,8-dihydro-6H-indeno[5,6-e][1,2,4]triazin-3-yl)-N^2,N^2-dipropyl-1,2-ethanediamine] | 95 to 97 °C |
| COCCN(C)CCNc1nc2cc3c(cc2[n+]([O-])n1)CCC3 [Compound 30, N^1-(1-Oxido-7,8-dihydro-6H-indeno[5,6-e][1,2,4]triazin-3-yl)-N^2-(2-methoxyethyl)-N^2-methyl-1,2-ethanediamine] | 107 to 110 °C |
| COCCCN(C)CCNc1nc2cc3c(cc2[n+]([O-])n1)CCC3 [Compound 32, N^1-(3-Methoxypropyl)-N^1-methyl-N^2-(1-oxido-7,8-dihydro-6H-indeno[5,6-e][1,2,4]triazin-3-yl)-1,2-ethanediamine] | 41 to 42 °C |
| COC1CN(CCNc2nc3cc4c(cc3[n+]([O-])n2)CCC4)C1 [Compound 34, N-[2-(3-Methoxy-1-azetidinyl)ethyl]-7,8-dihydro-6H-indeno[5,6-e][1,2,4]triazin-3-amine 1-Oxide] | 139 to 141 °C |
| [O-][n+]1nc(NCCN2CCCCC2)nc2cc3c(cc21)CCC3 [Compound 36, N-[2-(1-Piperidinyl)ethyl]-7,8-dihydro-6H-indeno[5,6-e][1,2,4]triazin-3-amine 1-Oxide] | 151 to 153 °C |
| CC1CCCC(C)N1CCNc1nc2cc3c(cc2[n+]([O-])n1)CCC3 (stereo not shown) [Compound 38, N-[2-(2,6-Dimethyl-1-piperidinyl)ethyl]-7,8-dihydro-6H-indeno[5,6-e][1,2,4]triazin-3-amine 1-Oxide] | 173 to 175 °C |
| COC1CCCN(CCNc2nc3cc4c(cc3[n+]([O-])n2)CCC4)C1 (stereo not shown) [Compound 40, N-[2-(3-Methoxy-1-piperidinyl)ethyl]-7,8-dihydro-6H-indeno[5,6-e][1,2,4]triazin-3-amine 1-Oxide] | 123 to 124 °C |
| COC1CCN(CCNc2nc3cc4c(cc3[n+]([O-])n2)CCC4)CC1 [Compound 42, N-[2-(4-Methoxy-1-piperidinyl)ethyl]-7,8-dihydro-6H-indeno[5,6-e][1,2,4]triazin-3-amine 1-Oxide] | 131 to 133 °C |
| [O-][n+]1nc(NCCN2CCOCC2)nc2cc3c(cc21)CCC3 [Compound 44, N-[2-(4-Morpholinyl)ethyl]-7,8-dihydro-6H-indeno[5,6-e][1,2,4]triazin-3-amine 1-Oxide] | 178 to 179 °C |
| [O-][n+]1nc(NCCN2CCCCCC2)nc2cc3c(cc21)CCC3 [Compound 46, N-[2-(1-Azepanyl)ethyl]-7,8-dihydro-6H-indeno[5,6-e][1,2,4]triazin-3-amine 1-Oxide] | 121 to 123 °C |
| [O-][n+]1nc(NCCN2CCCOCC2)nc2cc3c(cc21)CCC3 [Compound 48, N-[2-(1,4-Oxazepan-4-yl)ethyl]-7,8-dihydro-6H-indeno[5,6-e][1,2,4]triazin-3-amine 1-Oxide] | 119 to 120 °C |
| [O-][n+]1nc(NCCCO)nc2cc3c(cc21)CCC3 [Compound 50, 3-[(1-Oxido-7,8-dihydro-6H-indeno[5,6-e][1,2,4]triazin-3-yl)amino]-1-propanol] | 190 to 190.5 °C |

| Structure (SMILES) | melting point |
| --- | --- |
| COCCN(C)CCCNc1nc2cc3c(cc2[n+]([O-])n1)CCC3 [Compound 52, N^1-(2-Methoxyethyl)-N^1-methyl-N^3-(1-oxido-7,8-dihydro-6H-indeno[5,6-e][1,2,4]triazin-3-yl)-1,3-propanediamine] | 59 to 61 °C |
| COC1CN(CCCNc2nc3cc4c(cc3[n+]([O-])n2)CCC4)C1 [Compound 54, N-[3-(3-Methoxy-1-azetidinyl)propyl]-7,8-dihydro-6H-indeno[5,6-e][1,2,4]triazin-3-amine 1-Oxide] | 101 to 102 °C |
| N#CC1CCN(CCCNc2nc3cc4c(cc3[n+]([O-])n2)CCC4)C1 (stereo not shown) [Compound 56, 1-{3-[(1-Oxido-7,8-dihydro-6H-indeno[5,6-e][1,2,4]triazin-3-yl)amino]propyl}-3-pyrrolidinecarbonitrile] | 111 to 112 °C |
| COC1CCN(CCCNc2nc3cc4c(cc3[n+]([O-])n2)CCC4)CC1 [Compound 58, N-[3-(4-Methoxy-1-piperidinyl)propyl]-7,8-dihydro-6H-indeno[5,6-e][1,2,4]triazin-3-amine 1-Oxide] | 120 to 121 °C |
| [O-][n+]1nc(NCCCN2CCOCC2)nc2cc3c(cc21)CCC3 [Compound 60, N-[3-(4-Morpholinyl)propyl]-7,8-dihydro-6H-indeno[5,6-e][1,2,4]triazin-3-amine 1-Oxide] | 139 to 141 °C |
| [O-][n+]1nc(NCCCCN2CCOCC2)nc2cc3c(cc21)CCC3 [Compound 62, N-[4-(4-Morpholinyl)butyl]-7,8-dihydro-6H-indeno[5,6-e][1,2,4]triazin-3-amine 1-Oxide] | 151 to 152 °C |
| [O-][n+]1ncnc2cc3c(cc21)CCC3 [Compound 64, 7,8-Dihydro-6H-indeno[5,6-e][1,2,4]triazine 1-Oxide] | 130 to 131 °C |
| C=CCc1nc2cc3c(cc2[n+]([O-])n1)CCC3 [Compound 69, 3-Allyl-7,8-dihydro-6H-indeno[5,6-e][1,2,4]triazine 1-Oxide] | 60 to 61 °C |
| [O-][n+]1nc(CCCO)nc2cc3c(cc21)CCC3 [Compound 70, 3-(1-Oxido-7,8-dihydro-6H-indeno[5,6-e][1,2,4]triazin-3-yl)-1-propanol] | 131 to 133 °C |
| CC(C)(C)OP(=O)(OCCCc1n[n+]([O-])c2cc3c(cc2[n+]1[O-])CCC3)OC(C)(C)C [Compound 73, 3-(3-(Di-tert-butoxyphosphoryloxy)propyl)-7,8-dihydro-6H-indeno[5,6-e][1,2,4]triazine 1,4-Dioxide] | 129 to 131 °C |
| O=CCCc1nc2cc3c(cc2[n+]([O-])n1)CCC3 [Compound 75, 3-(1-oxido-7,8-dihydro-6H-indeno[5,6-e][1,2,4]triazin-3-yl)propanal] | 72 to 74 °C |
| CC1Cc2cc3nc(N)n[n+]([O-])c3cc2C1 (stereo not shown) [Compound 94, 7-Methyl-7,8-dihydro-6H-indeno[5,6-e][1,2,4]triazin-3-amine 1-Oxide] | 275 to 277 °C |
| CC1Cc2cc3nc(NCCN(C)C)n[n+]([O-])c3cc2C1 (stereo not shown) [Compound 96, N^1,N^1-Dimethyl-N^2-(7-methyl-1 oxido-7,8-dihydro-6H-indeno[5,6-e][1,2,4]triazin-3-yl)-1,2-ethanediamine] | 119 to 121 °C |
| CC1Cc2cc3nc(NCCCN4CCOCC4)n[n+]([O-])c3cc2C1 (stereo not shown) [Compound 98, 7-Methyl-N-[3-(4-morpholinyl)propyl]-7,8-dihydro-6H-indeno[5,6-e][1,2,4]triazin-3-amine 1-Oxide] | 138 to 140 °C |
| CC1Cc2cc3nc(I)n[n+]([O-])c3cc2C1 (stereo not shown) [Compound 100, 3-Iodo-7-methyl-7,8-dihydro-6H-indeno[5,6-e][1,2,4]triazine 1-Oxide] | 140 to 142 °C |
| CC1Cc2cc3nc(CCCN4CCOCC4)n[n+]([O-])c3cc2C1 (stereo not shown) [Compound 102, 7-Methyl-3-[3-(4-morpholinyl)propyl]-7,8-dihydro-6H-indeno[5,6-e][1,2,4]triazine 1-Oxide] | 70 to 71 °C |
| CN(C)C1Cc2cc3nc(N)n[n+]([O-])c3cc2C1 (stereo not shown) [Compound 111, N^7,N^7-Dimethyl-7,8-dihydro-6H-indeno[5,6-e][1,2,4]triazine-3,7-diamine 1-Oxide] | 212 to 216 °C |
| CCNc1nc2cc3c(cc2[n+]([O-])n1)CC(N(C)C)C3 (stereo not shown) [Compound 113, N^3-Ethyl-N^7,N^7-dimethyl-7,8-dihydro-6H-indeno[5,6-e][1,2,4]triazine-3,7-diamine 1-Oxide] | 187 to 190 °C |
| Nc1nc2cc3c(cc2[n+]([O-])n1)CC(CO)C3 (stereo not shown) [Compound 124, (3-Amino-1-oxido-7,8-dihydro-6H-indeno[5,6-e][1,2,4]triazin-7-yl)methanol] | 255 to 257 °C |
| CCNc1nc2cc3c(cc2[n+]([O-])n1)CC(CO)C3 (stereo not shown) [Compound 126, [3-(Ethylamino)-1-oxido-7,8-dihydro-6H-indeno[5,6-e][1,2,4]triazin-7-yl]methanol] | 150 °C |
